{"source": "paper PMC3423427", "about": "“Design and Synthesis of Potent N-Acylethanolamine-hydrolyzing Acid Amidase (NAAA) Inhibitor as Anti-Inflammatory Compounds” (PLoS ONE, 2012)", "key": {"[1]": {"target": "T1, rat FAAH (Rattus norvegicus, UniProt P97612)", "T1 construct": "made in house; host or cells: HEK293 cells stably overexpressing rat FAAH (HEK293-rFAAH), a gift from D. Piomelli; crude cell extract", "T1 sequence (P97612 1-579)": "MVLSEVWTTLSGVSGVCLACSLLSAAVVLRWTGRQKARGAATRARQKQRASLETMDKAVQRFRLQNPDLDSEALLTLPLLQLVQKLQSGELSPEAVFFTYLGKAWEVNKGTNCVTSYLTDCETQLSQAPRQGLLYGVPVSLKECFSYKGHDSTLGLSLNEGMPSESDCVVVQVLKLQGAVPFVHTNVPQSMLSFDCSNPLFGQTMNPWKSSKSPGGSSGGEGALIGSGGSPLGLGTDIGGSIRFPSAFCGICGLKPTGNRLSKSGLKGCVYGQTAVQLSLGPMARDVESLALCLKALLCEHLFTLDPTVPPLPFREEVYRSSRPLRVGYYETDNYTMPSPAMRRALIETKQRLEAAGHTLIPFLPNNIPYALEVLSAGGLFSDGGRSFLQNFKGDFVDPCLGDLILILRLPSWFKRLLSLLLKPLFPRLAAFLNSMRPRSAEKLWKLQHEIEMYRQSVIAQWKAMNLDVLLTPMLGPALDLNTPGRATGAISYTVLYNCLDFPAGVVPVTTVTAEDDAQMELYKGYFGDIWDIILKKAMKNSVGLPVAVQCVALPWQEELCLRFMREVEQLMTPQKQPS", "experiment": "FAAH enzymatic assay (recombinant rFAAH protein, LC/MS)", "type": "biochemical", "description": "HEK293-rNAAA or HEK293-rFAAH cells were harvested, washed with PBS, sonicated in 20 mM Tris-HCl (pH 7.5) containing 0.32 M sucrose, and centrifuged at 800 × g for 15 min at 4°C. The supernatants were collected and protein concentrations were measured by BCA protein assay kit (Pierce, Shanghai, China). […] The reactions were terminated by adding 0.2 mL methanol containing 1 nmol heptadecanoic acid and analyzed in LC/MS.\nWe use an Agilent 1200-LC system coupled to a 3200Q TRAP-MS detector equipped with an ESI interface (Agilent Technologies, Shanghai, China). […] The column temperature was set at 40°C. […] Mass spectrometer (MS) detection was ionized by positive-ion atmospheric pressure chemical ionization mode (APCI^+) and monitored in MRM mode. […] Quantifications were calculated at chromatographic peak areas by using Analyst® version 1.4.1. software (Applied Biosystems)."}, "[2]": {"target": "T2, monoacylglycerol lipase (MGL) (Homo sapiens, UniProt Q99685)", "T2 sequence (Q99685 1-303)": "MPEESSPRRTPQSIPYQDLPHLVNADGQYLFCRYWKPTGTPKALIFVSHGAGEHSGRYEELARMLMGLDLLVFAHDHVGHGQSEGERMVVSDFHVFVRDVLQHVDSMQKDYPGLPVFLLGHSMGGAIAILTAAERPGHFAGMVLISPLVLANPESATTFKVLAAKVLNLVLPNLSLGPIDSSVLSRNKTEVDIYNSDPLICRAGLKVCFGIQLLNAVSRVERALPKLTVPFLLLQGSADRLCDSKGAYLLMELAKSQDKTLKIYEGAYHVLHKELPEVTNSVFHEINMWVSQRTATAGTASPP", "experiment": "MGL activity assay (Figure S1)", "type": "biochemical", "settings": "100 µM (Figure S1)", "experimental": "Supplementary file pone.0043023.s001.pdf: Figure S1 Effect of vehicle (open bar) and compound 16 (100 µM, closed bars) on the activity of NAAA, FAAH, MGL, and ASAH. ***, p<0.001, one-way ANOVA, n = 3. (PDF) Click here for additional data file."}, "[3]": {"settings": "24 hr", "experimental": "To evaluate the biological and chemical stability of compound 16, we determined the degradation products of compound 16 in different chemical environments, as well as in rat plasma. First, chemical hydrolysis was evaluated at various pHs, i.e. pH 1.0 and pH 13.0. The hydrolytic product, biphenylpropanoic acid, if any, was detected by thin layer chromatography (TLC) after 24 hr incubation with 0.1 M HCl (pH 1.0) or […] (pH 13.0). […] Second, to test whether compound 16 was sensitive to thermal challenge, we placed compound 16 in 80°C incubator for 24 hr."}, "[4]": {"target": "T3, NAAA (Rattus norvegicus, UniProt Q5KTC7)", "T3 sequence (Q5KTC7 34-362)": "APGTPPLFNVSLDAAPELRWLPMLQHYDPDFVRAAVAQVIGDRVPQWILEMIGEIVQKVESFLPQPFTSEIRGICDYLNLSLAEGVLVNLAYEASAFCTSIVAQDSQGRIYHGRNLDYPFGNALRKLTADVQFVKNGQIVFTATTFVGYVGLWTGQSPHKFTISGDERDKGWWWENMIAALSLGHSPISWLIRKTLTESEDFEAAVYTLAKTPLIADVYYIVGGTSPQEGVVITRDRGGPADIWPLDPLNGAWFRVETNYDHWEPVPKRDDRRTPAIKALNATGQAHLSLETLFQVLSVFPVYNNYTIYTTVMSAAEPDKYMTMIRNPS", "experiment": "NAAA activity in intact HEK293 cells overexpressing NAAA", "type": "cell-based", "settings": "10 µM, 8 hr", "experimental": "(§1) HEK293 cells overexpressing rat NAAA (HEK293-rNAAA) and rat FAAH (HEK293-rFAAH) were kind gifts from Dr. Daniele Piomelli in University of California, Irvine. The stable-overexpressing cell lines were maintained in Dulbecco’s Modified Eagle Medium (DMEM, Hyclone, Beijing, China) supplemented with 10% FBS (Gibco®, Shanghai, China) containing 0.3 mg/mL G418. Mouse macrophage cells RAW264.7 and Human Embryonic Kidney cell HEK293 cells were purchased from American Type Culture Collection (ATCC, Beijing, China) and maintained in DMEM supplemented with 10% FBS in humidified 5% CO2 atmosphere at 37°C. RAW264.7 cells were plated and cultured overnight until 80% confluence and then incubated with a series of compound 16 of different concentrations for 30 min before challenged by LPS."}, "[5]": {"system": "RAW264.7 cells", "experimental": "as §1\nThe column temperature was set at 40°C."}, "[6]": {"target": "T3, NAAA", "experiment": "Rapid dilution NAAA assay", "type": "biochemical", "design": "made in house; host or cells: HEK293 cells stably overexpressing rat NAAA (HEK293-rNAAA), a gift from D. Piomelli; crude 800 x g supernatant of sonicated cells", "settings": "pre-incubation 10-fold IC50, 100-fold dilution", "experimental": "Rapid dilution assay was performed as previously described. Briefly, samples containing 100-fold concentrated rNAAA recombinant protein were pre-incubated with 10-fold the IC50-equivalent concentration of compound 16 or vehicle (1% DMSO) for 10 min at 37°C. Samples were then diluted 100-fold with assay buffer containing substrate to initiate reactions, and the time course of product formation was measured by LC/MS."}}, "data": [{"molecule": "O=C(CCc1ccc(-c2ccccc2)cc1)N1CCCC1", "note": "[Compound 16, 1–(2–Biphenyl–4–yl)ethyl–carbonyl pyrrolidine]", "values": [{"measurement": "IC50", "setting": "[1]; IC50 ± S.E.M., triplicate, 25 µM anandamide, pH 8.0", "result": "> 100", "unit": "µM"}, {"measurement": "reduction of FAAH activity", "setting": "[1]; at concentration of 100 µM", "result": "no more than 30%"}, {"measurement": "inhibitory effect on MGL", "setting": "[2]", "result": "no inhibitory effect"}, {"measurement": "stability, 0.1M HCl", "setting": "[3]; 0.1 M HCl (pH 1.0)", "result": 100, "unit": "%"}, {"measurement": "hydrolytic product on TLC, acidic medium", "setting": "[3]; 0.1 M HCl (pH 1.0), TLC EtOAc/PE 1:2", "result": "no detectable biphenylpropanoic acid"}, {"measurement": "hydrolytic product on TLC, basic medium", "setting": "[3]; 0.1 M NaCl (pH 13.0) as printed, TLC EtOAc/PE 1:2", "result": "no detectable biphenylpropanoic acid"}, {"measurement": "stability, 80°C", "setting": "[3]; 80°C incubator", "result": 100, "unit": "%"}, {"measurement": "degradation products on TLC after thermal challenge", "setting": "[3]; 80°C, TLC EtOAc/PE 1:2", "result": "no trace of biphenylpropanoic acid or other corresponding residuals"}, {"measurement": "stability, 0.1NaOH", "setting": "[3]; basic medium (pH 13.0)", "result": 100, "unit": "%"}, {"measurement": "inhibition on NAAA activity in intact cells", "setting": "[4]", "result": "more than 60%"}, {"measurement": "cellular PEA levels, LPS+compound", "setting": "[5]; RAW264.7, 0.5 µg/mL LPS, LPS alone 0.67±0.12", "result": "1.41±0.17", "unit": "pmol/mg protein"}, {"measurement": "cellular PEA levels, compound alone", "setting": "[5]; RAW264.7, no LPS, vehicle 1.23±0.07", "result": "1.30±0.23", "unit": "pmol/mg protein"}, {"measurement": "NAAA activity after rapid dilution of inhibitor-NAAA complex", "setting": "[6]", "result": "almost completely restored the NAAA activity"}]}]}
